Source: patent US8263589B2, “Inhibitors of protein aggregation” (Wista Laboratories Ltd., priority 2006, dated 2012)
Where two headings read alike, the source gives them in different places. Blank lines part the entries; values can stand above or below the compound they belong to.

What was measured:
[1] = target: T1, α-synuclein (fsyn binding to solid phase tsyn) (Homo sapiens, UniProt P37840); assay: Solid phase ELISA assay for synuclein-synuclein binding
T1 construct: full-length α-synuclein (fsyn) was added in the aqueous phase; The core aggregation domain of α-synuclein (amino acids 31-109) was expressed with an N-terminal polyhistidine tag; polyhistidine (N); made in house; host or cells: E. coli
Method: A solid phase assay was used to measure self-association of α-synuclein. tsyn diluted in carbonate buffer (pH 8.5) was bound to the assay plate, and full-length α-synuclein (fsyn) was added in the aqueous phase. The aqueous phase binding buffer was 50 mM Na-phosphate, pH 6.0, 20 mM NaCl, 0.05% Tween-20, 1% fish skin gelatine.
The two α-synuclein proteins were also used in a binding assay. The tsyn is bound in the solid phase, and full-length fsyn is added in the aqueous phase. […]

[2] = target: T2, assembled tsyn (core aggregation domain of α-synuclein, amino acids 31-109) (Homo sapiens, UniProt P37840); assay: Fluorescence assay of disruption of assembled tsyn (thioflavine T / primulin); type: biochemical
T2 construct: The core aggregation domain of α-synuclein (amino acids 31-109) was expressed with an N-terminal polyhistidine tag; polyhistidine (N); made in house; host or cells: E. coli
Method: (§1) α-Synuclein proteins (tsyn or fsyn) were incubated at 37° C. for the times indicated in Figure legends with mixing to induce fibril formation. In some cases, 50 μg/ml heparin was included to enhance fibril formation.
(§2) Samples of 10 μl were then diluted to 100 μl with water, plus thioflavine T or primulin at 1 μM, or 0.2 or 5 μM in some cases. Fluorescence excitation spectra were measured in 96 well plates in a Varian Carey Eclipse Fluorescence Spectrophotometer, with the emission wavelength at 480 nm. Excitation spectra were corrected for the signal measured without tsyn and the peak signal measured from the spectra. The data were normalised to the value measured without compound and P50 values measured from plots of normalised fluorescence against concentration of compound.
The effect of the compounds on thioflavine T and primulin fluorescence could be due to competition for the fluorescence ligand rather than disruption of the fibrils. To test this, the experiment was done at three different concentrations of fluorophore, since the P50 will be dependent on fluorophore concentration only if the effect is due to competition.

[3] = system: NIE cells
[4] = target: α-synuclein (SSFsyn) in NIE-115 cells (Homo sapiens, UniProt P37840); assay: Cell based assay for α-synuclein aggregation (SSFsyn in NIE-115 cells differentiated with dbcAMP, immunoblot mAb 42); set-up: species or system mouse; conditions: for EC50: ratio of α-synuclein to non-specific band falls to 50% of dbcAMP alone, immunoblot mAb 42, read-out: EC50, inhibition of FSyn expression in NIE cells differentiated with dbcAMP
Method: The cell based assay employed a mouse neuroblastoma cell line NIE-115 that had been engineered to express full-length α-synuclein incorporating an N-terminal signal sequence (SSfsyn) to target incorporation of the protein into the membrane (see WO02/059150). When the cells were differentiated with dibutyryl cyclicAMP (dbcAMP) (1 mM) expression of the α-synuclein protein was increased.
α-synuclein protein was detected by immunoblot using various anti-α-synuclein antibodies. These included: mAb 42 (BD Biosciences Cat No. 610787) that recognises an epitope within tsyn (residues 31-109 of α-synuclein). In addition to α-synuclein, mAb 42 also reacts non-specifically with a protein of higher molecular mass (the protein is not recognised by other anti-α-synuclein antibodies). This protein was used as an estimate of cell numbers as the level of this protein in cells correlates with cell density. Drugs were tested with these cells and an inhibitory activity (EC50) was calculated by determining the drug concentration in which the ratio of α-synuclein to the non-specific band fell to 50% of the value for cells treated with dbcAMP alone.
The timing of the addition of the dbcAMP and drug was varied and the length of time that the cells are left in the presence of drug+dbcAMP before collecting cells was also be varied.

[5] = target: T3, assembled fsyn (full-length α-synuclein) (Homo sapiens, UniProt P37840); assay: Fluorescence assay of disruption of assembled fsyn (thioflavine T / primulin); type: biochemical; conditions: assembled 47 h with heparin, compound 1 h, read-out: P50 for inhibition of α-synuclein-dependent fluorescence
T3 construct: Full-length α-synuclein (syn) was expressed without a tag, and purified by ion exchange chromatography; made in house; host or cells: E. coli
Method: as §1, §2

[6] = system: parkinsonian tremor; conditions: cited from earlier work
[7] = 1 μM tsyn-16 (solid phase), 5 μM fsyn-20 (aqueous phase), 50 mM sodium phosphate pH 6.0, 20 mM NaCl, read-out: B50 (μM) in α-synuclein binding assay
[8] = tsyn-16 assembled with heparin (50 μg/ml), primulin 1 μM, mean ± SEM (n), read-out: P50 (μM) using primulin
[9] = tsyn-16 assembled with heparin (50 μg/ml), thioflavine T 1 μM, mean ± SEM (n), read-out: P50 (μM) using thioflavone T
[10] = assembled tsyn, primulin 0.2 μM, read-out: P50 (mean), effect of fluorophore concentration
[11] = assembled tsyn, primulin 1.0 μM, read-out: P50 (mean), effect of fluorophore concentration
[12] = assembled tsyn, primulin 5.0 μM, read-out: P50 (mean), effect of fluorophore concentration
[13] = assembled tsyn, thioflavine T 0.2 μM, read-out: P50 (mean), effect of fluorophore concentration
[14] = assembled tsyn, thioflavine T 1.0 μM, read-out: P50 (mean), effect of fluorophore concentration
[15] = assembled tsyn, thioflavine T 5.0 μM, read-out: P50 (mean), effect of fluorophore concentration
[16] = tsyn-13, primulin 1 μM, assembled 20 h with heparin, compound 1 h, read-out: P50 for inhibition of α-synuclein-dependent fluorescence
[17] = tsyn-13, thioflavine T 1 μM, assembled 20 h with heparin, compound 1 h, read-out: P50 for inhibition of α-synuclein-dependent fluorescence

- IC50 [1, 7]: 43.1 µM
Compound: O=c1c(O)c(-c2ccc(O)c(O)c2)oc2ccccc12 [3,3′,4′-Trihydroxy-flavone, reference compound]

Compound: O=c1cc(-c2ccccc2)oc2cc(O)ccc12 [7-Hydroxy-flavone, reference compound]
- IC50 [1]: 35.3 µM
- IC50 [2]: > 50 µM
- IC50 ([2]; P50 (μM) using primulin, tsyn-16 assembled with heparin (50 μg/ml), primulin 1 μM, mean ± SEM (n)): > 50 µM

- IC50 [1, 7]: 141 µM
Compound: Cc1c(-c2ccccc2)oc2cc(O)ccc2c1=O [7-hydroxy-3-methyl-flavone, reference compound]

Compound: CN(C)c1ccc2nc3ccc(N)cc3[s+]c2c1 [Azure A, reference compound]
- LD50 [3]: 8.8 µM
- activity in the synuclein-synuclein binding assay [1]: inactive
- IC50 [1, 7]: > 500 µM
- IC50 [2, 8]: 17.9 ± 2 µM
- IC50 [2, 9]: 3.8 ± 0.9 µM
- EC50 [4]: 0.32 µM

Compound: CNc1ccc2nc3ccc(N(C)C)cc3[s+]c2c1 [Azure B, reference compound]
- LD50 [3]: 0.8 µM
- activity in the synuclein-synuclein binding assay [1]: inactive
- IC50 [1, 7]: > 500 µM
- EC50 [4]: 0.25 µM

- IC50 [1, 7]: 2.5 µM
- IC50 [2, 8]: 28.2 µM
- IC50 [2, 9]: 47.6 µM
Compound: O=c1cc(-c2ccccc2)oc2cc(O)c(O)c(O)c12 [Baicalein, reference compound]

Compound: CCc1cc(N(CC)CC)cc2[s+]c3cc(N(CC)CC)cc(CC)c3nc12 [DEETC, 1,9-Diethyl-ethyl-thioninium chloride]
- LD50 [3]: 1.0 µM
- activity in the synuclein-synuclein binding assay [1]: active
- IC50 [1, 7]: 0.4 µM
- EC50 [4]: 0.004 ± 0.001 µM

Compound: CCc1cc(N(C)C)cc2[s+]c3cc(N(C)C)cc(CC)c3nc12 [DEMTC, 1,9-Diethyl-methyl-thioninium chloride]
- LD50 [3]: 3 µM
- activity in the synuclein-synuclein binding assay [1]: active
- IC50 [1, 7]: 0.8 ± 0.4 µM

Compound: CCN(CC)c1cc(C)c2nc3c(C)cc(N(CC)CC)cc3[s+]c2c1 [DMETC]
- LD50 [3]: 6 µM
- activity in the synuclein-synuclein binding assay [1]: active
- IC50 [1, 7]: 0.5 ± 0.1 µM
- IC50 [2, 8]: 5 ± 0.9 µM
- IC50 [2, 9]: 0.9 ± 0.2 µM
- EC50 [4]: 0.05 ± 0.04 µM

Compound: Cc1cc(N(C)C)cc2[s+]c3cc(N(C)C)cc(C)c3nc12 [DMMTC, 1,9-Dimethyl-methyl-thioninium chloride]
- LD50 [3]: 1.2 µM
- activity in the synuclein-synuclein binding assay [1]: active
- IC50 [1, 7]: 4.9 µM
- IC50 [2, 8]: 20.7 ± 7.8 µM
- IC50 [2, 9]: 0.2 µM
- EC50 [4]: 0.1 ± 0.02 µM

Compound: CCN(CC)c1ccc2nc3ccc(N(CC)CC)cc3[s+]c2c1 [ETC, Ethyl-thioninium chloride]
- LD50 [3]: 38 µM
- activity in the synuclein-synuclein binding assay [1]: active
- IC50 [1, 7]: 3.8 ± 0.3 µM
- IC50 [2, 10]: 41.7 µM
- IC50 [2, 11]: 34 µM
- IC50 [2, 12]: 32.3 µM
- IC50 [2, 13]: 3.2 µM
- IC50 [2, 14]: 9 µM
- IC50 [2, 15]: 17.6 µM
- IC50 [2, 16]: 24.1 µM
- IC50 [2, 17]: 30.3 µM
- IC50 [2, 8]: 26 ± 6 µM
- IC50 [2, 9]: 7.3 ± 3.8 µM
- EC50 [4]: 0.08 ± 0.02 µM
- IC50 ([5]; fsyn-14, primulin): 30.6 µM
- IC50 ([5]; fsyn-14, thioflavine T): 25.3 µM

- IC50 [1, 7]: 88.2 µM
Compound: O=c1c(O)c(-c2ccc(O)c(O)c2)oc2cc(O)ccc12 [Fisetin, reference compound]

- IC50 [1, 7]: 60.8 µM
- IC50 [2, 8]: > 50 µM
- IC50 [2, 9]: > 50 µM
Compound: COc1cc(-c2oc3cc(O)ccc3c(=O)c2O)ccc1O [Geraldol, reference compound]

Compound: CN(C)c1ccc2nc3ccc(N(C)C)cc3[s+]c2c1 [MTC, methyl-thioninium chloride]
- tolerability of oral administration ([6]; oral 8 grains (=518 mg)/day): discontinued due to side effects
- activity in the synuclein-synuclein binding assay [1]: active
- IC50 [1, 7]: 131 ± 15 µM
- IC50 [2, 10]: 41.7 µM
- IC50 [2, 11]: 35.1 µM
- IC50 [2, 12]: 31.2 µM
- IC50 [2, 13]: 11.6 µM
- IC50 [2, 14]: 12.7 µM
- IC50 [2, 15]: 20.2 µM
- IC50 [2, 16]: 12.9 µM
- IC50 [2, 17]: 18.5 µM
- IC50 [2, 8]: 30.4 ± 3 µM
- IC50 [2, 9]: 15.4 ± 3.7 µM
- IC50 ([5]; fsyn-14, primulin): 23.5 µM
- IC50 ([5]; fsyn-14, thioflavine T): 3.8 µM

Compound: COc1cc(O)c2c(=O)c(O)c(-c3ccc(O)c(O)c3)oc2c1 [Rhamnetin, reference compound]
- LD50 [3]: 31 µM
- IC50 [1, 7]: 11.4 ± 9.7 µM
- IC50 [2, 8]: 34.7 µM
- IC50 [2, 9]: 39.4 µM
- inhibitory activity in the cell based assay ([4]; NIE-115 SSFsyn cells with dbcAMP): inhibitory

- IC50 [1, 7]: 39.2 µM
- IC50 [2, 8]: 27.6 µM
- IC50 [2, 9]: 21.1 µM
Compound: O=c1c(O)c(-c2cc(O)c(O)c(O)c2)oc2cc(O)ccc12 [Robinetin, reference compound]

Compound: Cc1cc2nc3ccc(N(C)C)cc3[s+]c2cc1N [Tolonium chloride, Tolonium Chloride]
- LD50 [3]: 1.2 µM
- activity in the synuclein-synuclein binding assay [1]: active
- IC50 [1, 7]: 3.3 ± 0.3 µM
- IC50 [2, 8]: 8.8 ± 3.3 µM
- IC50 [2, 9]: 1.5 ± 0.2 µM

Compound: Thionine
- effect on Parkinsonian tremor ([6]; 4 individuals, MTC intravenously 1 or 2 mg/kg): gave no result
- activity in the synuclein-synuclein binding assay [1]: active
- IC50 [1, 7]: 32.2 ± 11.7 µM
- IC50 [2, 8]: 23 ± 2.2 µM
- IC50 [2, 9]: 3.8 ± 0.3 µM
